Source: patent US20220356163A1, “SMALL MOLECULE INHIBITORS OF Id PROTEINS” (MEMORIAL SLOAN KETTERING CANCER CENTER, priority 2019, published 2022)

Legend:
lung metastases = assay: LLC metastasis model; type: in vivo, mouse; settings: daily ip
Experimental: Thirty C57BL/6 mice will be implanted with 7.5×10^5 LLC cancer cells/animal. Seven days after implantation, 5M/5F per group will be treated daily ip for 25 days with dosing vehicle (DMSO), AGX51, or a compound of the present technology (such as AGX-A). Fourteen days after implantation, another group of 5M/5F animals will be treated daily ip for 18 days with 50 mg/kg of AGX51 and another group of 5M/5F animals will be treated daily ip for 18 days with a compound of the present technology (such as AGX-A). Tumors will be measured three times from Day 7 to 14. On Day 14, the tumors will be excised. The animals will be necropsied for the presence of lung metastases on day 32, 18 days post excision.

HUVEC = HUVEC growth, cell cycle and Cyclin D1; type: cell-based, human
Experimental: Immunoblotting. For immunoblotting, cells were collected by trypsinization, washed with PBS and lysed in homogenization buffer (0.3 M sucrose, 10 mM Tris (pH 8.0), 400 mM sodium chloride, 3 mM magnesium chloride, 0.5% NP40/IGEPAL, 100 μg/mL Aprotinin+Protease inhibitor cocktail (Roche #11 836 153 001). Proteins were separated by SDS-PAGE, transferred to a membrane (LI-COR), probed with primary antibodies overnight at 4° C., and probed with secondary antibodies (LI-COR) for 1-2 hours at room temperature. Proteins were visualized using the LI-COR Odyssey Infrared Imaging detection system. The following primary antibodies were used Id1, Id2, Id3, Id4 (195-14, 9-2-8, 17-3, 82-12, respectively, all from Biocheck), Cyclin D1 (2978, Cell Signaling), Actin (A2066, Sigma), Tubulin (T4026, Sigma). Western blot quantification was carried out using channel 700 and channel 800 intensity data from Odyssey application software version 3.0.30 (LI-COR), subtracting blank values and normalizing to Tubulin.
Cell viability assays. Cell lines were seeded in a 96 well plate (5000 cells per well). After overnight incubation, cells were treated with AGX51 and incubated for 24 hours then MTT reagent (5 mg/mL) was added per well and the cells were incubated for four hours. Following incubation, media was aspirated and 200 μL DMSO was added per well. Absorbance was then measured at 570 nm using a plate reader (Synergy 2, BioTek). Cell growth profiles were determined by seeding 38,000 cells in a 24-well plate, in triplicate for each time point, and counting the cells on days 1, 3 and 5 after seeding, using trypan blue exclusion of dead cells.
Cell cycle analysis. […] For cell cycle analysis cells were centrifuged 1000 rpm for 5 minutes, washed with 1×PBS and then resuspended in 0.5 mL PI/RNase staining buffer (550825, BD Biosciences), incubated for 15 minutes at room temperature and analyzed by flow cytometry (LSR II).

MDA-MB-453 = assay: MTT assay, MDA-MB-453; type: cell-based; design: scale not given here; settings: MDA-MB-453, HER-2 +ve cell line, 24 hours
Source text: (§1) The 4T1 murine mammary tumor cell line and nine breast cancer cell lines representing the major breast cancer subtypes (ER+, HER2+, and TNBC) including MDA-MB-157, MDA-MB-436, MDA-MB-231, MDA-MB-453, MDA-MB-361, BT-474, SK-BR-3, MCF-7 and T47-D will be grown in RPMI or DMEM (Dulbecco's Modified Eagle Medium) media supplemented with 10% FBS (fetal bovine serum), 1% penicillin-streptomycin and 1% L-Glutamine. Patient derived xenograft cell lines BR7, BR11, and IBT will be established directly from breast cancer bone metastases specimens surgically resected from patients with informed consent. BR7 and BR11 specimens will be obtained from ER positive (HER2 negative and PR negative) metastatic breast cancer patients, while the IBT specimen will be obtained from a metastatic, triple negative breast cancer patient. Fresh tumor tissues will be quickly washed with ice cold PBS and minced into about 1-3 mm pieces in MEM medium (without FBS) using sterile razor blades. […] The cells will be treated with either 100 μM DMSO, AGX51, or a compound of the present technology such as AGX-A. The cell morphology and growth will be monitored daily for 1 week by microscopy for changes in morphology or cell death. […] Absorbance will then measured at 570 nm using a plate reader (Synergy 2, BioTek). […]

BT-474 = assay: MTT assay, BT-474; type: cell-based; design: scale not given here; settings: BT-474, HER-2 +ve cell line, 24 hours
Source text: as §1

Structure (SMILES): CCC(=O)N(CCC(c1ccc2c(c1)OCO2)c1ccccc1OC)Cc1ccccc1 (racemic) [AGX51, N-(3-(benzo[d][1,3]dioxol-5-yl)-3-(2-methoxyphenyl)propyl)-N-benzylpropionamide]
- lung metastases (lung metastases): profoundly diminish lung metastases
- Cyclin D1 levels (HUVEC; 0-40 μM, 24 hours): reduction in Cyclin D1 levels
- cell viability (HUVEC; 20 μM): reduced cell viability
- cell cycle (HUVEC; 20 μM, 24 hours): G0/G1 growth arrest
- percentage at 60 μM (IC50 NA) (MDA-MB-453): NA (60 μM = 57%)
- percentage at 60 μM (IC50 NA) (BT-474): NA (60 μM = 53%)
